# How the values were obtained:
# [1] = target: T1, Serine/threonine-protein kinase TBK1 (Homo sapiens) (UniProt Q9UHD2); experiment: Selectivity interaction (Upstate Kinase Profiler service (Millipore)) EUB0000056c TBK1; details: at 1 µM
# T1 sequence (whole entry): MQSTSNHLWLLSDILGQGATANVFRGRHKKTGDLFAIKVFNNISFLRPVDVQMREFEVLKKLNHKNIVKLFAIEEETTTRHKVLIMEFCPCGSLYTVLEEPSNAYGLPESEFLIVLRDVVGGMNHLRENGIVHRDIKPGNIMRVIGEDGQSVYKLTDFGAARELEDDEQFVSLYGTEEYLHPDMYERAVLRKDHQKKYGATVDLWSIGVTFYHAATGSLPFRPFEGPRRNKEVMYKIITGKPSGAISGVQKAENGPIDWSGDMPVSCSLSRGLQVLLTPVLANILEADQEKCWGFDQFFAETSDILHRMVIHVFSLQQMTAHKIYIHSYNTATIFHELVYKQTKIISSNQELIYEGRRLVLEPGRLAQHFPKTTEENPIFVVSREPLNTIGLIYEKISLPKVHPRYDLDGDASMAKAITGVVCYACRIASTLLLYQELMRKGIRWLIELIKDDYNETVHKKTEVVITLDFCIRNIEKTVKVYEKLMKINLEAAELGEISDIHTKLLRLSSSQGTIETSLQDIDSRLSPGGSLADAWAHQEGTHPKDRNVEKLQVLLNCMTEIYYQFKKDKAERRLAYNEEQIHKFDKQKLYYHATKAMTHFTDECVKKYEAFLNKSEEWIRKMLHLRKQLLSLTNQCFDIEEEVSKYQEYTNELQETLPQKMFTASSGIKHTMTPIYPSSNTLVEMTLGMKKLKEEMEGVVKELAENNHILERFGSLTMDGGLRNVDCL
# [2] = target: Vasopressin V1a receptor (Homo sapiens) (UniProt P37288); experiment: Selectivity interaction (Panel of kinases, GPCRs, ion channels and transporters (enzymatic assay)) EUB0000266bCl AVPR1A
# Vasopressin V1a receptor (Homo sapiens), sequence (P37288 whole entry, looked up): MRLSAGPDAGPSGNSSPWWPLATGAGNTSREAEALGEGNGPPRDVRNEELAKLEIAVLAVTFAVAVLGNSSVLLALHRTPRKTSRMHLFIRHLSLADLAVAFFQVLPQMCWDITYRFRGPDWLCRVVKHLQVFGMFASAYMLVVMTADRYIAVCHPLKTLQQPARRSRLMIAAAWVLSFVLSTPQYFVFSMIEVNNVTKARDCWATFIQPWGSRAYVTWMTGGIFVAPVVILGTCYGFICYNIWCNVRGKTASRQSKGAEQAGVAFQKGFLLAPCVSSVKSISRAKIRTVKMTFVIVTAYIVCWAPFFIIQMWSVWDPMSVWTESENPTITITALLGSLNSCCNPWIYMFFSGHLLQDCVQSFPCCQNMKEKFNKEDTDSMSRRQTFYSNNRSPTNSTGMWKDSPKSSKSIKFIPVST
# [3] = target: Receptor-type tyrosine-protein kinase FLT3 (Homo sapiens) (UniProt P36888); experiment: Selectivity interaction (KinomeScan (DiscoverX)) EUB0001079a FLT3; details: at 1 µM
# [4] = target: Tyrosine-protein kinase receptor UFO (Homo sapiens) (UniProt P30530); experiment: Selectivity interaction (KinomeScan (DiscoverX)) EUB0000666a AXL; details: at 10 µM
# Tyrosine-protein kinase receptor UFO (Homo sapiens), sequence (P30530 whole entry): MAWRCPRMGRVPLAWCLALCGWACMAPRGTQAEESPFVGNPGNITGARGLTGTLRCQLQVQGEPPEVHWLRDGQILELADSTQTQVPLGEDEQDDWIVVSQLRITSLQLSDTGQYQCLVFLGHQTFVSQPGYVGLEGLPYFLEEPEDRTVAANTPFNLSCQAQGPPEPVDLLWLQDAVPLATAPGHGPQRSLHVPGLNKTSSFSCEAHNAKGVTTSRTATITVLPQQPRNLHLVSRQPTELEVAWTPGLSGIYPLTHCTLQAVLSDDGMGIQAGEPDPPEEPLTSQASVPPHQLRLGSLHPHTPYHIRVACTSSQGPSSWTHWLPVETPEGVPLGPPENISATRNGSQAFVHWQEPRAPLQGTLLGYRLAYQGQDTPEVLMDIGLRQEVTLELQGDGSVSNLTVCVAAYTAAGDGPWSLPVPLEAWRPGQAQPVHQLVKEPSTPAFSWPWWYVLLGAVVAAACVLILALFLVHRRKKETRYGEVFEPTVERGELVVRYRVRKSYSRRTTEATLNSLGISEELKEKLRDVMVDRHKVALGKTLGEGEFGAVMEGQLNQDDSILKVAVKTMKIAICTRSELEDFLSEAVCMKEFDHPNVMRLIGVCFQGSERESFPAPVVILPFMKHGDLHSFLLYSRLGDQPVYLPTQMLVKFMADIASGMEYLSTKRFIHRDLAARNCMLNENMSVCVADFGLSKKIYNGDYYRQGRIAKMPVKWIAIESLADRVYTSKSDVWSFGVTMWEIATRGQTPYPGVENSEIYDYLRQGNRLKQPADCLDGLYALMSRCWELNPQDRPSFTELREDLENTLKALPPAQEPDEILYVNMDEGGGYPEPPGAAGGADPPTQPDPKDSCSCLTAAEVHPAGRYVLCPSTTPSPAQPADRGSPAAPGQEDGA
# [5] = target: RAF proto-oncogene serine/threonine-protein kinase (Homo sapiens) (UniProt P04049); experiment: Selectivity interaction (Millipore kinase profiler) EUB0000124b RAF1; details: at 10 µM
# RAF proto-oncogene serine/threonine-protein kinase (Homo sapiens), sequence (P04049 whole entry): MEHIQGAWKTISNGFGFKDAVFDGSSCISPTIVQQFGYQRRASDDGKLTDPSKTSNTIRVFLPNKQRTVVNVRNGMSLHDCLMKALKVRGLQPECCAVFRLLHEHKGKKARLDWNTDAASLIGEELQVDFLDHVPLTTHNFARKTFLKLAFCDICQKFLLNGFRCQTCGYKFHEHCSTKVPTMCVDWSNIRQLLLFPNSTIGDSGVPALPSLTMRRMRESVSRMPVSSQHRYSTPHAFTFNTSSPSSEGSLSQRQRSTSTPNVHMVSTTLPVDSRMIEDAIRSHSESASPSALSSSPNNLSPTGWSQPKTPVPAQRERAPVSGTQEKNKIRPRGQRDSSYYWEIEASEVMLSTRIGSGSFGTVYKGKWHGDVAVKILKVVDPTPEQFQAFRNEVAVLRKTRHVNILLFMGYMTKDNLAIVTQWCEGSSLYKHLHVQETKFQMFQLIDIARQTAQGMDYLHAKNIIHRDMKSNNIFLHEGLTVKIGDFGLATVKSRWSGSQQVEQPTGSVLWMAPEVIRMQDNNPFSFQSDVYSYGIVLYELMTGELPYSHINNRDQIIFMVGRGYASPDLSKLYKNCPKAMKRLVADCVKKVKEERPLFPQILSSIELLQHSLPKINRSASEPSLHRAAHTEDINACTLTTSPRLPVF
# [6] = target: Ribosomal protein S6 kinase alpha-1 (Homo sapiens, UniProt Q15418); experiment: Selectivity interaction (ActivX KiNativ screen (kinase selectivity in THP-1 cell lysates)) EUB0000639a RPS6KA1; format: subcellular; details: lysate, at 0.2 µM
# [7] = target: Protein kinase C delta type (Homo sapiens) (UniProt Q05655); experiment: Selectivity interaction (ActivX KiNativ screen (kinase selectivity in THP-1 cell lysates)) EUB0000639a PRKCD; format: subcellular; details: lysate
# Protein kinase C delta type (Homo sapiens), sequence (Q05655 whole entry, looked up): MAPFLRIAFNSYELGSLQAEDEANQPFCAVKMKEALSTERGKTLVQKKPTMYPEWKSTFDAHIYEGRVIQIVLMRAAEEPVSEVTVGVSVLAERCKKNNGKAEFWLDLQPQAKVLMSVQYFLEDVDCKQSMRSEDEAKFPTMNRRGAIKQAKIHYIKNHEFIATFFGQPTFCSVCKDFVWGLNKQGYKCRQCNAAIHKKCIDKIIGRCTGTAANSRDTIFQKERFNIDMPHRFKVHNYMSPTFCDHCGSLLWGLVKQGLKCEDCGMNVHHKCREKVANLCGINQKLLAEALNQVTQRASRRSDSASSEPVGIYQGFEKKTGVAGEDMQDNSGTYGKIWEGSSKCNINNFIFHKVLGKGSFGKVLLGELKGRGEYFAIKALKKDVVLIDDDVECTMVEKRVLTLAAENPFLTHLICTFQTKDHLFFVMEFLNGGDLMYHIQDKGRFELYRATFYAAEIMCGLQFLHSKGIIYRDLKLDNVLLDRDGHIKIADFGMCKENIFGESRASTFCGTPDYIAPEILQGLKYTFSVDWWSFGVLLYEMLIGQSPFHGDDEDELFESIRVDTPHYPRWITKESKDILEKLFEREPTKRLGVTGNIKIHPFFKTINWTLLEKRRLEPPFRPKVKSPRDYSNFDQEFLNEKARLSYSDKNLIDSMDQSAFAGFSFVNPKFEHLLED
# [8] = target: Calcium/calmodulin-dependent protein kinase kinase 2 (Homo sapiens) (UniProt Q96RR4); experiment: Selectivity interaction (ActivX KiNativ screen (kinase selectivity in THP-1 cell lysates)) EUB0000639a CAMKK2; format: subcellular; details: lysate, at 1 µM
# Calcium/calmodulin-dependent protein kinase kinase 2 (Homo sapiens), sequence (Q96RR4 2-588 limits assumed): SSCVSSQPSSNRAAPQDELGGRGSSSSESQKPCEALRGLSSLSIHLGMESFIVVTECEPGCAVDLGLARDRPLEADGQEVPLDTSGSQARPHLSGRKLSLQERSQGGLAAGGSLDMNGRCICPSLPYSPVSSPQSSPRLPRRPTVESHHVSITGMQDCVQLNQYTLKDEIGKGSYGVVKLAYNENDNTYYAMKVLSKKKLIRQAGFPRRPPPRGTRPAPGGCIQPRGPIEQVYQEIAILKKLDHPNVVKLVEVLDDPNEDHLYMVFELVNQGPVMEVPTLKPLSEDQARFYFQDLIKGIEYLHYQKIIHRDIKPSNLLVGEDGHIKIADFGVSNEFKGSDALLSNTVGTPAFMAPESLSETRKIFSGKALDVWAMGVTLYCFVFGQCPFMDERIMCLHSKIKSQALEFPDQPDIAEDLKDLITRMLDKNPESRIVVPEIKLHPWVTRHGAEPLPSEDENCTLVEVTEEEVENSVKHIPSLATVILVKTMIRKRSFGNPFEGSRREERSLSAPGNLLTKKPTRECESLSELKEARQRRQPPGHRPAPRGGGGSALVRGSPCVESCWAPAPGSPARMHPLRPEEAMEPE
# [9] = target: Mitogen-activated protein kinase 7 (Homo sapiens) (UniProt Q13164); experiment: Selectivity interaction (KinomeScan (DiscoverX)) EUB0000595a MAPK7; details: at 10 µM
# [10] = target: T2, Casein kinase I isoform alpha-like (Homo sapiens) (UniProt Q8N752); experiment: Selectivity interaction (KinomeScan (DiscoverX)) EUB0000045b CSNK1A1L
# T2 sequence (whole entry): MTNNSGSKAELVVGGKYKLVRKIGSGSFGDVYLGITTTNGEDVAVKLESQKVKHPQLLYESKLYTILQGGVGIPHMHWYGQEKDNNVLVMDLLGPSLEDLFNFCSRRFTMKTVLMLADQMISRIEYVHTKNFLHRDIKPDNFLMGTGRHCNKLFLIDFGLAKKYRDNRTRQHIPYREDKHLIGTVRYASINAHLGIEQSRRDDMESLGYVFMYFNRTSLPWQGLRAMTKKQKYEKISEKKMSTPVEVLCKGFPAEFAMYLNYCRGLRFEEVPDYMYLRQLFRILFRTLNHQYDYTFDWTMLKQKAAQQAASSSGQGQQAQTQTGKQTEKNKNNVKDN
# [11] = target: Epithelial discoidin domain-containing receptor 1 (Homo sapiens) (UniProt Q08345); experiment: Selectivity interaction (KinomeScan (DiscoverX)) EUB0000618a DDR1; details: at 10 µM
# [12] = target: Protein-tyrosine kinase 2-beta (Homo sapiens) (UniProt Q14289); experiment: Selectivity interaction (Ambit KINOMEscan and KiNATiv profiling in Jurkat cells) EUB0000090b PTK2B; format: cell-based; details: at 1 µM
# Aurora kinase B = Aurora kinase B (Homo sapiens, UniProt Q96GD4); experiment: Selectivity interaction (Ambit KINOMEscan and KiNATiv profiling in Jurkat cells) EUB0000090b AURKB; format: cell-based; details: at 1 µM
# Aurora kinase B, sequence (Q96GD4 whole entry): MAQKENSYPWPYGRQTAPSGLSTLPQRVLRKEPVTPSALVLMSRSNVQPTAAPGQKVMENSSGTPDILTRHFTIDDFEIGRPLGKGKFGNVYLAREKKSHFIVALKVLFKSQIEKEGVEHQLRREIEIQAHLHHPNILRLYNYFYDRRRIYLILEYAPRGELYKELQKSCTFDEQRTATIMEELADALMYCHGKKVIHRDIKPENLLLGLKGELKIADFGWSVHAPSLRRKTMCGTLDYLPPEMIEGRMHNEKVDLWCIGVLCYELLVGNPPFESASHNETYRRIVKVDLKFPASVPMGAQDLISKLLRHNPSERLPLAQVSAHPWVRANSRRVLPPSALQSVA
# [13] = target: Cyclin-dependent kinase 3 (Homo sapiens) (UniProt Q00526); experiment: Selectivity interaction (Ambit KINOMEscan and KiNATiv profiling in Jurkat cells) EUB0000090b CDK3; format: cell-based; details: at 1 µM
# Cyclin-dependent kinase 3 (Homo sapiens), sequence (Q00526 whole entry, looked up): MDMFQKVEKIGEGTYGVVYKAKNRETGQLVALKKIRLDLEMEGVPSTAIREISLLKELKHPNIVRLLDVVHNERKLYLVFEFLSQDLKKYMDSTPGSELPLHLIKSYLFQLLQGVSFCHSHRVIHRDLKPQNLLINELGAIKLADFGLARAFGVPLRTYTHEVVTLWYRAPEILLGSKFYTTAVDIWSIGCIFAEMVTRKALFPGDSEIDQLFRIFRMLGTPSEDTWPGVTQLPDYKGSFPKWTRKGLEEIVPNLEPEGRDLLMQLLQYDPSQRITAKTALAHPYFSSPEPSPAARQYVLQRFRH
# [14] = target: Leukocyte tyrosine kinase receptor (Homo sapiens, UniProt P29376); experiment: Selectivity interaction (KinomeScan (DiscoverX)) EUB0001619a LTK; details: at 1 µM
# Leukocyte tyrosine kinase receptor, sequence (P29376 whole entry): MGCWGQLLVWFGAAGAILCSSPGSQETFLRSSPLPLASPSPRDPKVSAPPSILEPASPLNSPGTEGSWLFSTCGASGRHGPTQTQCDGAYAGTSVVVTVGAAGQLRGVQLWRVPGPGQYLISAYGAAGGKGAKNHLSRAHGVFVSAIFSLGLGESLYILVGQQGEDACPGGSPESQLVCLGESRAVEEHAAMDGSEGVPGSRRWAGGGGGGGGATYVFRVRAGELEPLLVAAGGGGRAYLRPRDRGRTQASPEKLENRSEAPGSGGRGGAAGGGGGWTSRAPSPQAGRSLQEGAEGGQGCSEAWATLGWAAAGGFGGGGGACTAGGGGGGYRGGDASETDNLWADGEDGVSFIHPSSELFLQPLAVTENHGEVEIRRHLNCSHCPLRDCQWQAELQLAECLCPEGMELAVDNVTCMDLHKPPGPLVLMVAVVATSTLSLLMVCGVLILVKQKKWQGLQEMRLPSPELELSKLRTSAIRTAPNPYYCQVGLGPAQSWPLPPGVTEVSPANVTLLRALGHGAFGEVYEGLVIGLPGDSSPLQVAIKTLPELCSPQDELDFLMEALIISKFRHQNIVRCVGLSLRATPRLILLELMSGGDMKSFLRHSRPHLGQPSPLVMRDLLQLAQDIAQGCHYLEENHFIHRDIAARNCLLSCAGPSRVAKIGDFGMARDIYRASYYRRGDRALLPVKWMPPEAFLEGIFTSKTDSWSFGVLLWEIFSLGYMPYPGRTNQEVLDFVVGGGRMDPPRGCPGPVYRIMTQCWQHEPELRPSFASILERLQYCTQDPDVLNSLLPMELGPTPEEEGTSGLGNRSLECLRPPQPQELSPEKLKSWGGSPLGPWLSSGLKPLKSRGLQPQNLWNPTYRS
# [15] = target: T3, Scaffold protein ILK (Homo sapiens) (UniProt Q13418); experiment: Selectivity interaction (ActivX KiNativ screen (ex vivo kinase selectivity in human PBMCs)) EUB0001619a ILK; format: cell-based; details: PBMC, at 1 µM
# T3 sequence (whole entry): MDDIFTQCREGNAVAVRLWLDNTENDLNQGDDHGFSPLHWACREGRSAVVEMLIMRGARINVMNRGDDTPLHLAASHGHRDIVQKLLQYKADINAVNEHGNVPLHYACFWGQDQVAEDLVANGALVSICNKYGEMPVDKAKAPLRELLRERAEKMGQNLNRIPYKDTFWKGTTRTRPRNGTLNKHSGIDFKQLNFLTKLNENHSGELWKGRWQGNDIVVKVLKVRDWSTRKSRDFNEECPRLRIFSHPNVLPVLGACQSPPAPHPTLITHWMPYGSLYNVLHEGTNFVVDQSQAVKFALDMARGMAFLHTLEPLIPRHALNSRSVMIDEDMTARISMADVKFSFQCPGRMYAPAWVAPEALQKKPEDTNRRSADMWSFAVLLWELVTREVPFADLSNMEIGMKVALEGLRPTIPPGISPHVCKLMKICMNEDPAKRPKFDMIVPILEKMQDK
compound,measurement,setting,value
Cc1ccc(-c2ccc3c(ccc4sc5c(c43)NC[C@@H](C)NC5=O)n2)cn1,% of inhibition,[1],18%
CCn1c(-c2nc3cc(C(=O)N4CCCC(N)C4)ccc3n2C)cc2ccccc21 (stereo unspecified),pXC50,[2],< 4.3 M
Nc1cnc(N2CCc3cc(S(=O)(=O)Nc4c(F)cc(Cl)cc4F)cc(N4CCCC4=O)c32)nc1 [TP-020n],% of control,[3],91%
O=C(NOC[C@H](O)CO)c1ccc(F)c(F)c1Nc1ccc(I)cc1F,% of control,[4],83%
CC(=O)Nc1cccc(-n2c(=O)n(C3CC3)c(=O)c3c(Nc4ccc(I)cc4F)n(C)c(=O)c(C)c32)c1,% of control,[5],108%
CC[C@@H]1[C@H](F)C(=O)N[C@@H]1COc1nccc2cc(C(N)=O)c(OC)cc12 [ZIMLOVISERTIB],% of inhibition,[6],-3.6%
same,% of inhibition,[7]; at 0.01 µM,-1%
same,% of inhibition,[7]; at 0.04 µM,-2%
same,% of inhibition,[7]; at 0.2 µM,1.3%
same,% of inhibition,[7]; at 1 µM,7.2%
same,% of inhibition,[7]; at 5 µM,-13.1%
same,% of inhibition,[8],12.1%
COCC(=O)NC/C=C/c1ccc2ncnc(Nc3ccc(Oc4ccc(C)nc4)c(C)c3)c2c1 [CP-724714],% of control,[9],100%
C=CC(=O)Nc1cc(-n2c(=O)ccc3cnc4ccc(-c5ccc(NS(C)(=O)=O)cc5)cc4c32)ccc1C,% of control,[10]; at 1 µM,100%
same,% of control,[10]; at 10 µM,100%
O[C@H]1CC[C@H](Nc2ncc3nc(Nc4c(F)cc(F)cc4F)n([C@H]4CCOC4)c3n2)CC1,% of control,[11],27%
CN(C)C/C=C/C(=O)Nc1ccc(C(=O)N2CCCC(Nc3ncc(Cl)c(-c4c[nH]c5ccccc45)n3)C2)cc1 (stereo unspecified),% of control,[12],93%
same,% of control,Aurora kinase B,100%
same,% of control,[13],97%
N#Cc1cccc(-c2c[nH]c3ncnc(N4CCOCC4)c23)c1,% of control,[14],100%
same,% of inhibition,[15],-32%

# From ChEMBL document CHEMBL5465560, “Selectivity Literature for EUbOPEN Chemogenomic Library” (2024)
